# Source: US10787452B2 (Vertex Pharmaceuticals Incorporated, priority 2012, dated 2020)
# System: HCT116 colorectal cancer cells
# Assay: Cisplatin sensitization assay (96 h cell viability MTS);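 also: compound concentration needed to lower the Cisplatin-alone IC50 by a set fold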
# Assay type: cell-based
# Details: 96 h MTS, compound plus Cisplatin
# Procedure, shortened: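 Simultaneous addition of compound and cisplatin (2-fold series, top 10 μM final, full matrix), followed by 96 h culture at 37° C/5% CO2 and a 1 h MTS viability read.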
row,Structure (SMILES),Cisplatin Sensitization Assay
1,"CN1CC2CN(C(=O)C3CCN(c4c(F)cncc4NC(=O)c4c(N)nn5cc(F)cnc45)CC3)CC2C1 (stereo not drawn) [I-G-18, 2-amino-6-fluoro-N-(5-fluoro-4-(4-(5-methyloctahydropyrrolo[3,4-c]pyrrole-2-carbonyl)piperidin-1-yl)pyridin-3-yl)pyrazolo[1,5-a]pyrimidine-3-carboxamide]",+++ (Compounds with a Cisplatin sensitization value of <0.02 μM are marked with “+++.”)
2,"CC(C)(C)NC(=O)C1CCN(c2c(F)cncc2NC(=O)c2c(N)nn3cc(F)cnc23)CC1 [I-G-19, 2-amino-N-(4-(4-(tert-butylcarbamoyl)piperidin-1-yl)-5-fluoropyridin-3-yl)-6-fluoropyrazolo[1,5-a]pyrimidine-3-carboxamide]",++ (Compounds with a Cisplatin sensitization value >0.02 μM but <0.2 μM are marked with “++.”)
3,"CN1CCC(NC(=O)C2CCN(c3c(F)cncc3NC(=O)c3c(N)nn4cc(F)cnc34)CC2)CC1 [I-G-20, 2-amino-6-fluoro-N-(5-fluoro-4-(4-((1-methylpiperidin-4-yl)carbamoyl)piperidin-1-yl)pyridin-3-yl)pyrazolo[1,5-a]pyrimidine-3-carboxamide]",+ (Compounds with a Cisplatin sensitization value >0.2 μM but <5 μM are marked with “+.”)
4,"COC1CN(C(=O)C2CCN(c3c(F)cncc3NC(=O)c3c(N)nn4cc(F)cnc34)CC2)C1 [I-G-21, 2-amino-6-fluoro-N-(5-fluoro-4-(4-(3-methoxyazetidine-1-carbonyl)piperidin-1-yl)pyridin-3-yl)pyrazolo[1,5-a]pyrimidine-3-carboxamide]",+++ (Compounds with a Cisplatin sensitization value of <0.02 μM are marked with “+++.”)
5,"CN(C)C1CN(C(=O)C2CCN(c3c(F)cncc3NC(=O)c3c(N)nn4cc(F)cnc34)CC2)C1 [I-G-22, 2-amino-N-(4-(4-(3-(dimethylamino)azetidine-1-carbonyl)piperidin-1-yl)-5-fluoropyridin-3-yl)-6-fluoropyrazolo[1,5-a]pyrimidine-3-carboxamide]",+++ (Compounds with a Cisplatin sensitization value of <0.02 μM are marked with “+++.”)
6,"CN1CC(NC(=O)C2CCN(c3c(F)cncc3NC(=O)c3c(N)nn4cc(F)cnc34)CC2)C1 [I-G-23, 2-amino-6-fluoro-N-(5-fluoro-4-(4-((1-methylazetidin-3-yl)carbamoyl)piperidin-1-yl)pyridin-3-yl)pyrazolo[1,5-a]pyrimidine-3-carboxamide]",+++ (Compounds with a Cisplatin sensitization value of <0.02 μM are marked with “+++.”)
7,"CN1CCC(NC(=O)C2CCN(c3c(F)cncc3NC(=O)c3c(N)nn4cc(F)cnc34)CC2)C1 (stereo not drawn) [I-G-24, 2-amino-6-fluoro-N-(5-fluoro-4-(4-((1-methylpyrrolidin-3-yl)carbamoyl)piperidin-1-yl)pyridin-3-yl)pyrazolo[1,5-a]pyrimidine-3-carboxamide]",+++ (Compounds with a Cisplatin sensitization value of <0.02 μM are marked with “+++.”)
8,"CN1CCN(C(=O)C2(C#N)CCN(c3c(F)cncc3NC(=O)c3c(N)nn4cc(F)cnc34)CC2)CC1 [I-G-25, 2-amino-N-(4-(4-cyano-4-(4-methylpiperazine-1-carbonyl)piperidin-1-yl)-5-fluoropyridin-3-yl)-6-fluoropyrazolo[1,5-a]pyrimidine-3-carboxamide]",+++ (Compounds with a Cisplatin sensitization value of <0.02 μM are marked with “+++.”)
9,"CN(C)CCCNC(=O)C1CCN(c2c(F)cncc2NC(=O)c2c(N)nn3cc(F)cnc23)CC1 [I-G-26, 2-amino-N-(4-(4-((3-(dimethylamino)propyl)carbamoyl)piperidin-1-yl)-5-fluoropyridin-3-yl)-6-fluoropyrazolo[1,5-a]pyrimidine-3-carboxamide]",++ (Compounds with a Cisplatin sensitization value >0.02 μM but <0.2 μM are marked with “++.”)
10,"CC1(C)CN(C(=O)C2CCN(c3c(F)cncc3NC(=O)c3c(N)nn4cc(F)cnc34)CC2)CCN1 [I-G-27, 2-amino-N-(4-(4-(3,3-dimethylpiperazine-1-carbonyl)piperidin-1-yl)-5-fluoropyridin-3-yl)-6-fluoropyrazolo[1,5-a]pyrimidine-3-carboxamide]",++ (Compounds with a Cisplatin sensitization value >0.02 μM but <0.2 μM are marked with “++.”)
11,"Nc1nn2cc(F)cnc2c1C(=O)Nc1cncc(F)c1N1CCC(C(=O)N2CCNC3(CC3)C2)CC1 [I-G-28, N-(4-(4-(4,7-diazaspiro[2.5]octane-7-carbonyl)piperidin-1-yl)-5-fluoropyridin-3-yl)-2-amino-6-fluoropyrazolo[1,5-a]pyrimidine-3-carboxamide]",+++ (Compounds with a Cisplatin sensitization value of <0.02 μM are marked with “+++.”)
12,"CN(C)C(=O)C1CCN(c2c(F)cncc2NC(=O)c2c(N)nn3cc(F)cnc23)CC1 [I-G-29, 2-amino-N-(4-(4-(dimethylcarbamoyl)piperidin-1-yl)-5-fluoropyridin-3-yl)-6-fluoropyrazolo[1,5-a]pyrimidine-3-carboxamide]",+++ (Compounds with a Cisplatin sensitization value of <0.02 μM are marked with “+++.”)
13,"CN(C)CCNC(=O)C1CCN(c2c(F)cncc2NC(=O)c2c(N)nn3cc(F)cnc23)CC1 [I-G-30, 2-amino-N-(4-(4-((2-(dimethylamino)ethyl)carbamoyl)piperidin-1-yl)-5-fluoropyridin-3-yl)-6-fluoropyrazolo[1,5-a]pyrimidine-3-carboxamide]",+++ (Compounds with a Cisplatin sensitization value of <0.02 μM are marked with “+++.”)
14,"CN(C)CCN(C)C(=O)C1CCN(c2c(F)cncc2NC(=O)c2c(N)nn3cc(F)cnc23)CC1 [I-G-31, 2-amino-N-(4-(4-((2-(dimethylamino)ethyl)(methyl)carbamoyl)piperidin-1-yl)-5-fluoropyridin-3-yl)-6-fluoropyrazolo[1,5-a]pyrimidine-3-carboxamide]",+++ (Compounds with a Cisplatin sensitization value of <0.02 μM are marked with “+++.”)
15,"Nc1nn2cc(F)cnc2c1C(=O)Nc1cncc(F)c1N1CCC(C(=O)N2CCN(C3COC3)CC2)CC1 [I-G-32, 2-amino-6-fluoro-N-[5-fluoro-4-[4-[4-(oxetan-3-yl)piperazine-1-carbonyl]-1-piperidyl]-3-pyridyl]pyrazolo[1,5-a]pyrimidine-3-carboxamide]",+++ (Compounds with a Cisplatin sensitization value of <0.02 μM are marked with “+++.”)
16,"CNC(=O)C1CCN(c2c(F)cncc2NC(=O)c2c(N)nn3cc(F)cnc23)CC1 [I-G-33, 2-amino-6-fluoro-N-(5-fluoro-4-(4-(methylcarbamoyl)piperidin-1-yl)pyridin-3-yl)pyrazolo[1,5-a]pyrimidine-3-carboxamide]",+++ (Compounds with a Cisplatin sensitization value of <0.02 μM are marked with “+++.”)
17,"CNC1CN(C(=O)C2CCN(c3c(F)cncc3NC(=O)c3c(N)nn4cc(F)cnc34)CC2)C1 [I-G-34, 2-amino-6-fluoro-N-(5-fluoro-4-(4-(3-(methylamino)azetidine-1-carbonyl)piperidin-1-yl)pyridin-3-yl)pyrazolo[1,5-a]pyrimidine-3-carboxamide]",+++ (Compounds with a Cisplatin sensitization value of <0.02 μM are marked with “+++.”)
18,"Nc1nn2cc(F)cnc2c1C(=O)Nc1cncc(F)c1N1CCC(C(=O)N2CCN(C3CCC3)CC2)CC1 [I-G-35, 2-amino-N-(4-(4-(4-cyclobutylpiperazine-1-carbonyl)piperidin-1-yl)-5-fluoropyridin-3-yl)-6-fluoropyrazolo[1,5-a]pyrimidine-3-carboxamide]",+++ (Compounds with a Cisplatin sensitization value of <0.02 μM are marked with “+++.”)
19,"Nc1nn2cc(F)cnc2c1C(=O)Nc1cncc(F)c1N1CCC(C(=O)N2CCOCC2)CC1 [I-G-36, 2-amino-6-fluoro-N-(5-fluoro-4-(4-(morpholine-4-carbonyl)piperidin-1-yl)pyridin-3-yl)pyrazolo[1,5-a]pyrimidine-3-carboxamide]",+++ (Compounds with a Cisplatin sensitization value of <0.02 μM are marked with “+++.”)
20,"Nc1nn2cc(F)cnc2c1C(=O)Nc1cncc(F)c1N1CCC(C(=O)NC2COC2)CC1 [I-G-37, 2-amino-6-fluoro-N-(5-fluoro-4-(4-(oxetan-3-ylcarbamoyl)piperidin-1-yl)pyridin-3-yl)pyrazolo[1,5-a]pyrimidine-3-carboxamide]",++ (Compounds with a Cisplatin sensitization value >0.02 μM but <0.2 μM are marked with “++.”)
21,"CN1CCN(C(=O)C2CCN(c3c(F)cncc3NC(=O)c3c(N)nn4cc(F)cnc34)CC2)CC12CC2 [I-G-38, 2-amino-6-fluoro-N-(5-fluoro-4-(4-(4-methyl-4,7-diazaspiro[2.5]octane-7-carbonyl)piperidin-1-yl)pyridin-3-yl)pyrazolo[1,5-a]pyrimidine-3-carboxamide]",+++ (Compounds with a Cisplatin sensitization value of <0.02 μM are marked with “+++.”)
22,"COCCN(C)C(=O)C1CCN(c2c(F)cncc2NC(=O)c2c(N)nn3cc(F)cnc23)CC1 [I-G-40, 2-amino-6-fluoro-N-(5-fluoro-4-(4-((2-methoxyethyl)(methyl)carbamoyl)piperidin-1-yl)pyridin-3-yl)pyrazolo[1,5-a]pyrimidine-3-carboxamide]",+++ (Compounds with a Cisplatin sensitization value of <0.02 μM are marked with “+++.”)
23,"Nc1nn2cc(F)cnc2c1C(=O)Nc1cncc(F)c1N1CCC(C(=O)N2CC(O)C2)CC1 [I-G-41, 2-amino-6-fluoro-N-(5-fluoro-4-(4-(3-hydroxyazetidine-1-carbonyl)piperidin-1-yl)pyridin-3-yl)pyrazolo[1,5-a]pyrimidine-3-carboxamide]",+++ (Compounds with a Cisplatin sensitization value of <0.02 μM are marked with “+++.”)
24,"Nc1nn2cc(F)cnc2c1C(=O)Nc1cncc(F)c1N1CCC(C(=O)NCCN2CCC2)CC1 [I-G-42, 2-amino-N-(4-(4-((2-(azetidin-1-yl)ethyl)carbamoyl)piperidin-1-yl)-5-fluoropyridin-3-yl)-6-fluoropyrazolo[1,5-a]pyrimidine-3-carboxamide]",+++ (Compounds with a Cisplatin sensitization value of <0.02 μM are marked with “+++.”)
